# Measurements from patent publication US20100075965A1, “PI3 KINASE INHIBITORS AND METHODS OF THEIR USE” (Novartis AG, priority 2006, published 2010).
# Target: PI3 K Alpha (Homo sapiens, UniProt P42336)
# Assay: PI3 kinase phosphorylation assays (homogenous solution phase, one step solid phase, ATP depletion/KinaseGlo)
# Format: biochemical
# Conditions: ATP depletion assay; read-out: PI3 K Alpha IC50
# Protocol: Compounds to be tested are dissolved in DMSO and directly distributed into 384-well flashplates at 1.25 μL per well. To start the reaction, 20 μL of 6 nM PI3 kinase are added into each well followed by 20 μL of 400 nM ATP containing a trace of radiolabeled ATP and 900 nM 1-alpha-phosphatidylinositol (PI). The plates are briefly centrifuged to remove any air gap. The reaction is performed for 15 minutes and then stopped by the addition of 20 μL of 100 mM EDTA. The stopped reaction is incubated overnight at RT to allow the lipid substrate to bind by hydrophobic interaction to the surface of the flashplate. The liquid in the wells is then washed away, and the labeled substrate is detected with scintillation counting.
# This method is similar to Assay 1 except that the lipid substrate (1-alpha-phosphatidylinositol (PI)) is first dissolved in a coating buffer and incubated on flashplate at room temperature overnight to allow the lipid substrate to bind by hydrophobic interaction to the surface of the flashplate. Unbound substrate is then washed away. On the day of assay, 20 μL of 6 nM PI3 kinase are added into each well followed by 20 μL of 400 nM ATP containing trace of radiolabeled ATP. Compounds are added together with enzyme and ATP to the lipid-coated plates. The plates are briefly centrifuged to remove any air gap. The reaction is performed for two to three hours. The reaction is stopped by addition of 20 μL of 100 mM EDTA or by immediate plate washing. Phosphorylated lipid substrate is detected by scintillation counting.
# Compounds to be tested are dissolved in DMSO and directly distributed into a black 384-well plate at 1.25 μL per well. To start the reaction, 25 μL of 10 nM PI3 kinase and 5 μg/mL 1-alpha-phosphatidylinositol (PI) are added into each well followed by 25 μL of 2 μM ATP. The reaction is performed until approx 50% of the ATP is depleted, and then stopped by the addition of 25 μL of KinaseGlo solution. The stopped reaction is incubated for 5 minutes and the remaining ATP is then detected via luminescence.
# PI3 K Alpha, sequence (P42336 whole entry): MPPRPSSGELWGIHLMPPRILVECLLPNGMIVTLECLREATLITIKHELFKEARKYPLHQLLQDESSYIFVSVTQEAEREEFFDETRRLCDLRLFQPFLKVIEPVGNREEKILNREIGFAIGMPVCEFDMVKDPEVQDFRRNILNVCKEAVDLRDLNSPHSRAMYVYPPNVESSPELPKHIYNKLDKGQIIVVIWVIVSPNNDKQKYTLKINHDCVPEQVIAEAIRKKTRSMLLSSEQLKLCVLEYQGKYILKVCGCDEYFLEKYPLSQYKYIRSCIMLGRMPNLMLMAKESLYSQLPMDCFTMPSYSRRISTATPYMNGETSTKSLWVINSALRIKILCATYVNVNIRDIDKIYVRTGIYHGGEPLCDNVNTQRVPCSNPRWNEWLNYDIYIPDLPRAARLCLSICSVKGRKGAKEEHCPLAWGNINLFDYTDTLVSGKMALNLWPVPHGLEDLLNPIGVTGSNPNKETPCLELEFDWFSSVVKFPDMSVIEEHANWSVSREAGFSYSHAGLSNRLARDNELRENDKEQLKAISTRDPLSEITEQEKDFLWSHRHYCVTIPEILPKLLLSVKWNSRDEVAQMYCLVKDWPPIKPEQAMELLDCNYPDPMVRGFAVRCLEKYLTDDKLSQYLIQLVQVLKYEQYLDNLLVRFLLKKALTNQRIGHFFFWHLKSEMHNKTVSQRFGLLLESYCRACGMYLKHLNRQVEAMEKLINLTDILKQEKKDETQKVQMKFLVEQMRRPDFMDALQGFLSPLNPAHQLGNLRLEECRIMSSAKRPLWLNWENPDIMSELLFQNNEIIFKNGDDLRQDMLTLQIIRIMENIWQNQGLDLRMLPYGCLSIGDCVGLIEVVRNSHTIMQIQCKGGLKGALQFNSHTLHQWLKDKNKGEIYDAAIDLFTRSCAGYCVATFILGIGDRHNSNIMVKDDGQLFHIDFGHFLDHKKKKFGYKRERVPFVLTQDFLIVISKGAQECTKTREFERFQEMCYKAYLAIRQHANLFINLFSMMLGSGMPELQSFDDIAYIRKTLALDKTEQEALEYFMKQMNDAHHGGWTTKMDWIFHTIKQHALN
# PI3 K Alpha, sequence (P27986 whole entry partner): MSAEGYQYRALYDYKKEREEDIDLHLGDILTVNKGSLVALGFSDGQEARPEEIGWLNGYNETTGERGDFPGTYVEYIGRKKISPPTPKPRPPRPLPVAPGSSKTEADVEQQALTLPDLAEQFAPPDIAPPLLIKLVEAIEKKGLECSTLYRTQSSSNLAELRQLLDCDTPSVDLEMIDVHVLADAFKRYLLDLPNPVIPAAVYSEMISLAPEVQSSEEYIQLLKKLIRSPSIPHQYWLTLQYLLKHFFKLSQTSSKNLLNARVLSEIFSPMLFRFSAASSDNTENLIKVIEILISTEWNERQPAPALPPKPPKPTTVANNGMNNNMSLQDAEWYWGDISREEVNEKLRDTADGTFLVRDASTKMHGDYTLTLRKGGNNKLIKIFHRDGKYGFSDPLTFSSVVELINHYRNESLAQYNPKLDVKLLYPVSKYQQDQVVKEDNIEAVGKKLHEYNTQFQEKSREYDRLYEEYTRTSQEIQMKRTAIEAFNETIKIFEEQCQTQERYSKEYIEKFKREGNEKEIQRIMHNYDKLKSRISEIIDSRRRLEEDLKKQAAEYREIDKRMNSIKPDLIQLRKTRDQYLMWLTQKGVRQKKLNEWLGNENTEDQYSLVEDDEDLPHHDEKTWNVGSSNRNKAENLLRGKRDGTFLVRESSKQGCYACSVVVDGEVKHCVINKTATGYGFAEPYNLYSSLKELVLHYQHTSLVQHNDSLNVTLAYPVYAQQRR
row,IC50,Structure (SMILES)
1,< 1000 nM,"CC(=O)Nc1nc2ccc(-c3ccc(NC4CCOCC4)nc3)cc2s1 [Example 2-17, N-{6-[6-(Tetrahydro-pyran-4-ylamino)-pyridin-3-yl]-benzothiazol-2-yl}-acetamide]"
2,< 1000 nM,"CC(=O)Nc1nc2ccc(-c3ccc(NC4CCNCC4)nc3)cc2s1 [Example 2-19, N-{6-[6-(Piperidin-4-ylamino)-pyridin-3-yl]-benzothiazol-2-yl}-acetamide]"
3,< 1000 nM,"Nc1ccc(-c2ccc3nc(NC(=O)OCCN4CCCCC4)sc3c2)cn1 [Example 2-20, [6-(6-Amino-pyridin-3-yl)-benzothiazol-2-yl]-carbamic acid 2-piperidin-1-yl-ethyl ester]"
4,< 1000 nM,"CC(=O)Nc1nc2ccc(-c3cnc(NC(C)=O)c(C(F)(F)F)c3)cc2s1 [Example 2-22, N-[6-(6-Acetylamino-5-trifluoromethyl-pyridin-3-yl)-bezothiazol-2-yl]-acetamide]"
5,< 10000 nM,"Nc1cccc(C(=O)Nc2nc3ccc(-c4cnc(N)c(C(F)(F)F)c4)cc3s2)n1 [Example 2-35, 6-amino-N-(6-(6-amino-5-(trifluoromethyl)pyridin-3-yl)benzo[d]thiazol-2-yl)picolinamide]"
6,< 1000 nM,"Nc1cc(C(=O)Nc2nc3ccc(-c4cnc(N)c(C(F)(F)F)c4)cc3s2)ccn1 [Example 2-36, 2-amino-N-(6-(6-amino-5-(trifluoromethyl)pyridin-3-yl)benzo[d]thiazol-2-yl)isonicotinamide]"

# Same assay, conditions: read-out: PI3K Alpha IC50
row,Structure (SMILES),IC50
1,"CC(=O)Nc1nc2ccc(-c3ccc(N)nc3)cn2c1Br [Example 14, N-[6-(6-Amino-pyridin-3-yl)-3-bromo-imidazo[1,2-a]pyridin-2-yl]-acetamide]",< 10000 nM
2,"CCN(CC)CCCc1c(NC(C)=O)nc2ccc(-c3cnc(N)c(C(F)(F)F)c3)cn12 [Example 17, N-[6-(6-Amino-5-trifluoromethyl-pyridin-3-yl)-3-(3-diethylamino-propyl)-imidazo[1,2-a]pyridin-2-yl]-acetamide]",< 10000 nM
3,"CC(=O)Nc1nc2ccc(-c3cnc(N)c(C(F)(F)F)c3)cn2c1C(C)=O [Example 20, N-[3-Acetyl-6-(6-amino-5-trifluoromethyl-pyridin-3-yl)-imidazo[1,2-a]pyridin-2-yl]-acetamide]",< 10000 nM
4,"CC(=O)Nc1cn2cc(-c3cnc(N)cc3C(F)(F)F)ccc2n1 [Example 22, N-[6-(6-Amino-4-trifluoromethyl-pyridin-3-yl)-imidazo[1,2-a]pyridin-2-yl]-acetamide]",< 10000 nM
5,"CC(=O)Nc1cn2cc(-c3cnc(N)c(C(F)(F)F)c3)cc(C)c2n1 [Example 34, N-(6-(6-amino-5-(trifluoromethyl)pyridin-3-yl)-8-methylimidazo[1,2-a]pyridin-2-yl)acetamide]",> 25000 nM
6,"CC(=O)Nc1cn2c(-c3cnc(N)c(C(F)(F)F)c3)c(-c3cnc(N)c(C(F)(F)F)c3)ccc2n1 [Example 35, N-(5,6-bis(6-amino-5-(trifluoromethyl)pyridin-3-yl)imidazo[1,2-a]pyridin-2-yl)acetamide]",> 25000 nM
7,"CC(=O)N1CCCC[C@@H]1C(=O)Nc1cn2cc(-c3cnc(N)c(C(F)(F)F)c3)ccc2n1 [Example 47, (R)-1-acetyl-N-(6-(6-amino-5-(trifluoromethyl)pyridin-3-yl)imidazo[1,2-a]pyridin-2-yl)piperidine-2-carboxamide]",< 10000 nM
8,"CC(=O)Nc1cn2cc(-c3cnc(N)nc3N)ccc2n1 [Example 48, N-(6-(2,4-diaminopyrimidin-5-yl)imidazo[1,2-a]pyridin-2-yl)acetamide]",< 10000 nM
9,"Nc1ncc(-c2ccc3nc(NC(=O)N4CCC[C@H]4C(=O)O)cn3c2)cc1C(F)(F)F [Example 49, (S)-1-(6-(6-amino-5-(trifluoromethyl)pyridin-3-yl)imidazo[1,2-a]pyridin-2-ylcarbamoyl) pyrrolidine-2-carboxylic acid]",< 10000 nM
10,"Nc1ncc(-c2ccc3nc(NC(=O)c4ccccc4C(=O)O)cn3c2)cc1C(F)(F)F [Example 50, 2-(6-(6-amino-5-(trifluoromethyl)pyridin-3-yl)imidazo[1,2-a]pyridin-2-ylcarbamoyl) benzoic acid]",< 10000 nM
11,"Nc1ncc(-c2ccc3nc(NC(=O)N4CCCC4c4ccco4)cn3c2)cc1C(F)(F)F (stereo not drawn) [Example 274, N-(6-(6-amino-5-(trifluoromethyl)pyridin-3-yl)imidazo[1,2-a]pyridin-2-yl)-2-(furan-2-yl)pyrrolidine-1-carboxamide]",< 1000 nM
12,"Nc1ncc(-c2ccc3nc(NC(=O)N4CCCC4c4nccs4)cn3c2)cc1C(F)(F)F (stereo not drawn) [Example 275, N-(6-(6-amino-5-(trifluoromethyl)pyridin-3-yl)imidazo[1,2-a]pyridin-2-yl)-2-(thiazol-2-yl)pyrrolidine-1-carboxamide]",< 1000 nM

# Other lines, results leading:
row,IC50,Structure (SMILES)
1,< 1000 nM,"N#C/N=C(\N)NCCCC(=O)Nc1cn2nc(-c3cnc(N)c(C(F)(F)F)c3)ccc2n1 [Example 258, (E)-N-(6-(6-amino-5-(trifluoromethyl)pyridin-3-yl)imidazo[1,2-b]pyridazin-2-yl)-4-(2-cyanoguanidino) butanamide]"
2,< 1000 nM,"CC(=O)Nc1cn2cc(-c3cnc(N)c(O[C@@H](C)C(F)(F)F)n3)cc(F)c2n1 [Example 259, (S)-N-(6-(5-amino-6-(1,1,1-trifluoropropan-2-yloxy)pyrazin-2-yl)-8-fluoroimidazo [1,2-a]pyridin-2-yl)acetamide]"
3,< 1000 nM,"CC(=O)Nc1cn2nc(-c3cnc(N)c(-c4ccccc4Cl)c3)ccc2n1 [Example 260, N-(6-(6-amino-5-(2-chlorophenyl)pyridin-3-yl)imidazo[1,2-b]pyridazin-2-yl)acetamide]"
4,< 1000 nM,"CC(=O)Nc1cn2cc(-c3cnc(N)c(Oc4cccc(F)c4)n3)cc(F)c2n1 [Example 261, N-(6-(5-amino-6-(3-fluorophenoxy)pyrazin-2-yl)-8-fluoroimidazo [1,2-a]pyridin-2-yl)acetamide]"
5,< 1000 nM,"Nc1ncc(-c2ccc3nc(NC(=O)C4CCC(=O)N4)cn3c2)cc1C(F)(F)F (stereo not drawn) [Example 262, N-(6-(6-amino-5-(trifluoromethyl)pyridin-3-yl)imidazo[1,2-a]pyridin-2-yl)-5-oxopyrrolidine-2-carboxamide]"
6,< 1000 nM,"CC(=O)Nc1cn2cc(-c3cnc(N)c(OC(F)F)c3)ccc2n1 [Example 263, N-(6-(6-amino-5-(difluoromethoxy)pyridin-3-yl)imidazo[1,2-a]pyridin-2-yl)acetamide]"
7,< 1000 nM,"Nc1ncc(-c2ccc3nc(NC(=O)[C@H]4CCC(=O)O4)cn3c2)cc1C(F)(F)F [Example 264, (R)-N-(6-(6-amino-5-(trifluoromethyl)pyridin-3-yl)imidazo[1,2-a]pyridin-2-yl)-5-oxotetrahydro furan-2-carboxamide]"
8,< 1000 nM,"CC(=O)Nc1cn2cc(-c3cnc(N)c(O[C@H](C)C(F)(F)F)n3)cc(F)c2n1 [Example 265, (R)-N-(6-(5-amino-6-(1,1,1-trifluoropropan-2-yloxy)pyrazin-2-yl)-8-fluoroimidazo [1,2-a]pyridin-2-yl)acetamide]"
9,< 1000 nM,"Nc1ncc(-c2ccc3nc(NC(=O)C4CCCC(=O)N4)cn3c2)cc1C(F)(F)F (stereo not drawn) [Example 266, N-(6-(6-amino-5-(trifluoromethyl)pyridin-3-yl)imidazo[1,2-a]pyridin-2-yl)-6-oxo-piperidine-2-carboxamide]"
10,< 1000 nM,"CC(=O)Nc1cn2cc(-c3cnc(N)c(S(=O)(=O)N4CCC(Oc5ccc(F)cc5)CC4)c3)ccc2n1 [Example 267, N-(6-(6-amino-5-(4-(4-fluorophenoxy)piperidin-1-ylsulfonyl)pyridin-3-yl)imidazo[1,2-a]pyridin-2-yl)acetamide]"
11,< 1000 nM,Nc1ncc(-c2ccc3nc(NC(=O)[C@@H]4CCC(=O)O4)cn3c2)cc1C(F)(F)F [Example 268]
12,< 1000 nM,"Nc1ncc(-c2ccc3nc(NC(=O)c4cccc(-c5nn[nH]n5)c4)cn3c2)cc1C(F)(F)F [Example 269, N-(6-(6-amino-5-(trifluoromethyl)pyridin-3-yl)imidazo[1,2-a]pyridin-2-yl)-3-(2H-tetrazol-5-yl)benzamide]"
13,< 1000 nM,"Nc1ncc(-c2ccc3nc(NC(=O)C4CCC(=O)NC4)cn3c2)cc1C(F)(F)F (stereo not drawn) [Example 270, N-(6-(6-amino-5-(trifluoromethyl)pyridin-3-yl)imidazo[1,2-a]pyridin-2-yl)-6-oxopiperidine-3-carboxamide]"
14,< 1000 nM,"Nc1ncc(-c2ccc3nc(NC(=O)[C@@H](O)CCC(=O)O)cn3c2)cc1C(F)(F)F [Example 272, (S)-5-(6-(6-amino-5-(trifluoromethyl)pyridin-3-yl)imidazo[1,2-a]pyridin-2-ylamino)-4-hydroxy-5-oxopentanoic acid]"
15,< 1000 nM,"Nc1ncc(-c2ccc3nc(NC(=O)N4CCCC4Cc4ccccn4)cn3c2)cc1C(F)(F)F (stereo not drawn) [Example 273, N-(6-(6-amino-5-(trifluoromethyl)pyridin-3-yl)imidazo[1,2-a]pyridin-2-yl)-2-(pyridin-2-ylmethyl) pyrrolidine-1-carboxamide]"
